# Results published in US20240041042A1, “1-(PYRIDYL)-5-AZINYLPYRAZOLE DERIVATIVES, AND THEIR USE FOR CONTROL OF UNDESIRED PLANT GROWTH” (Bayer Aktiengesellschaft, priority 2020, published 2024).
# Like-named read-outs stand apart in the source and are kept apart here.
# Tests used:
# Type in all cases: in vivo
# [1] = tested on: Digitaria sanguinalis (DIGSA); experiment: Pre-emergence herbicidal action against DIGSA
# Excerpt: Seeds of monocotyledonous and dicotyledonous weed plants and crop plants are placed in plastic or organic planting pots and covered with soil. The compounds of the invention, formulated in the form of wettable powders (WP) or as emulsion concentrates (EC), are then applied to the surface of the covering soil as aqueous suspension or emulsion with addition of 0.5% additive at a water application rate equivalent to 600 l/ha. After the treatment, the pots are placed in a greenhouse and kept under good growth conditions for the trial plants. After about 3 weeks, the effect of the preparations is scored visually in comparison with untreated controls as percentages. For example, 100% activity=the plants have died, 0% activity=like control plants.
# Tables A1 to A13 below show the effects of selected compounds of the general formula (I) on various harmful plants and at an application rate corresponding to 320 g/ha or lower, which were obtained by the experimental procedure mentioned above. The appendices “a”, “b” and “c” give differentiation by dosage used with otherwise the same harmful plants tested.
# [2] = tested on: Verconica persica (VERPE); experiment: Pre-emergence herbicidal action against VERPE
# Summary of the method: (§1)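 Pre-emergence soil-surface spray of compound, formulated as wettable powder or emulsion concentrate, in aqueous suspension or emulsion with 0.5% additive (600 l/ha; rate 320 g/ha or less). Activity rated visually after roughly 3 weeks in the greenhouse as a percentage of untreated controls, 0% meaning no difference.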
# Oryza sativa (ORYSA) = conditions: crop plant compatibility
# Summary of the method: (§2)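 Visual rating (% effect vs. untreated plants; 100% = plant death) made about 3 weeks after treatment. Plants had been sprayed at one-leaf stage, 2–3 weeks post-sowing, with aqueous WP/EC preparations containing 0.5% additive, 600 l/ha water volume; a, b, c mark dose levels.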
# Viola tricolor (VIOTR) [3] = experiment: Post-emergence herbicidal action against VIOTR
# Summary of the method: (§3)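 Greenhouse plants sprayed at the one-leaf stage, 2–3 weeks after sowing, with WP or EC formulations plus 0.5% additive at 600 l/ha water. Activity rated visually after about 3 weeks versus untreated controls (100% = dead, 0% = like control), at 320 g/ha or lower.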
# Viola tricolor (VIOTR) [4] = experiment: Pre-emergence herbicidal action against VIOTR
# Summary of the method: as §1
# Lolium rigidum (LOLRI) = experiment: Pre-emergence herbicidal action against LOLRI
# Summary of the method: as §1
# [5] = tested on: Pharbitis purpurea (PHBPU); experiment: Post-emergence herbicidal action against PHBPU
# Summary of the method: as §3
# Avena fatua (AVEFA) [6] = experiment: Pre-emergence herbicidal action against AVEFA; conditions: 320 g/ha, visual scoring after about 3 weeks vs untreated controls
# Summary of the method: as §1
# [7] = tested on: Echinochloa crus-galli (ECHCG); experiment: Pre-emergence herbicidal action against ECHCG
# Summary of the method: as §1
# [8] = tested on: Amaranthus retroflexus (AMARE); experiment: Pre-emergence herbicidal action against AMARE; conditions: visual scoring after about 3 weeks vs untreated controls
# Summary of the method: as §1
# Setaria viridis (SETVI) [9] = experiment: Post-emergence herbicidal action against SETVI
# Summary of the method: as §3
# Setaria viridis (SETVI) [10] = experiment: Pre-emergence herbicidal action against SETVI
# Summary of the method: as §1
# [11] = tested on: Verconica persica (VERPE); experiment: Post-emergence herbicidal action against VERPE
# Summary of the method: as §3
# [12] = tested on: Alopecurus myosuroides (ALOMY); experiment: Pre-emergence herbicidal action against ALOMY; conditions: scored visually after about 3 weeks, 100% = plants have died
# Summary of the method: as §1
# [13] = tested on: Echinochloa crus-galli (ECHCG); experiment: Post-emergence herbicidal action against ECHCG
# Summary of the method: as §3
# [14] = tested on: Matricaria inodora (MATIN); experiment: Pre-emergence herbicidal action against MATIN
# Summary of the method: as §1
# [15] = tested on: Digitaria sanguinalis (DIGSA); experiment: Post-emergence herbicidal action against DIGSA; conditions: visual rating about 3 weeks after treatment
# Summary of the method: as §3
# [16] = tested on: Matricaria inodora (MATIN); experiment: Post-emergence herbicidal action against MATIN
# Summary of the method: as §3
# [17] = tested on: Pharbitis purpurea (PHBPU); experiment: Pre-emergence herbicidal action against PHBPU
# Summary of the method: as §1
# [18] = tested on: Abutilon theophrasti (ABUTH); experiment: Post-emergence herbicidal action against ABUTH; conditions: visual rating about 3 weeks after treatment vs untreated controls (100% = plants have died, 0% = like control plants)
# Summary of the method: as §3
# [19] = tested on: Alopecurus myosuroides (ALOMY); experiment: Post-emergence herbicidal action against ALOMY; conditions: 80 g/ha, visual rating about 3 weeks after treatment vs untreated controls (100% = plants have died, 0% = like control plants)
# Summary of the method: as §3
# [20] = tested on: Amaranthus retroflexus (AMARE); experiment: Post-emergence herbicidal action against AMARE; conditions: 80 g/ha, visual rating about 3 weeks after treatment vs untreated controls (100% = plants have died, 0% = like control plants)
# Summary of the method: as §3
# [21] = tested on: Polygonum convolvulus (POLCO); experiment: Pre-emergence herbicidal action against POLCO
# Summary of the method: as §1
# Avena fatua (AVEFA) [22] = experiment: Post-emergence herbicidal action against AVEFA; conditions: visual rating about 3 weeks after treatment
# Summary of the method: as §3
# Zea mays (ZEAMX) = tested on: Zea mays (ZEAMX)
# Summary of the method: as §2
# [23] = 80 g/ha, visual scoring after about 3 weeks vs untreated controls
# [24] = 80 g/ha, effect in comparison to untreated controls
# [25] = 20 g/ha, effect vs untreated controls
Structure (SMILES),"Pre-emergence action against DIGSA in % [1, 23] [%]",Pre-emergence action against DIGSA in % ([1]; dosage 320 g/ha) [%],Pre-emergence action against VERPE in % ([2]; dosage 320 g/ha) [%],Post-emergence action against ORYSA in % (Oryza sativa (ORYSA); [24]) [%],"Pre-emergence action against VIOTR in % (Viola tricolor (VIOTR) [4]; 320 g/ha, Viola tricolor) [%]",Pre-emergence action against VIOTR in % (Viola tricolor (VIOTR) [4]; dosage 80 g/ha) [%],Pre-emergence action against LOLRI in % (Lolium rigidum (LOLRI); dosage 320 g/ha) [%],Pre-emergence action against AVEFA in % (Avena fatua (AVEFA) [6]) [%],Pre-emergence action against ECHCG in % ([7]; dosage 320 g/ha) [%],Pre-emergence action against AMARE in % ([8]; 320 g/ha) [%],Pre-emergence action against SETVI in % (Setaria viridis (SETVI) [10]; dosage 80 g/ha) [%],Pre-emergence action against SETVI in % (Setaria viridis (SETVI) [10]; dosage 320 g/ha) [%],Pre-emergence action against ALOMY ([12]; 320 g/ha) [%],Post-emergence action against ECHCG in % ([13]; dosage 80 g/ha) [%],Pre-emergence action against MATIN in % ([14]; dosage 320 g/ha) [%],Post-emergence action against MATIN in % ([16]; dosage 80 g/ha) [%],Pre-emergence action against PHBPU in % ([17]; dosage 320 g/ha) [%],Pre-emergence action against AMARE in % ([8]; 80 g/ha) [%],Post-emergence action against DIGSA in % ([15]; 80 g/ha) [%],Pre-emergence action against POLCO in % ([21]; dosage 320 g/ha) [%],also measured
O=C(O)COc1nn(-c2nc(F)ccc2F)c(-c2cncc(F)c2)c1Cl [Example I-231],90,100,80,10,100,100,80,90,90,90,90,90,90,80,90,80,90,,,,"Pre-emergence action against VERPE in % ([2]; dosage 80 g/ha): 80%; Post-emergence action against VIOTR in % (Viola tricolor (VIOTR) [3]; 320 g/ha): 80%; Post-emergence action against PHBPU in % ([5]; dosage 320 g/ha): 80%; Pre-emergence action against ECHCG in % ([7]; dosage 80 g/ha): 90%; Post-emergence action against SETVI in % (Setaria viridis (SETVI) [9]; dosage 320 g/ha): 80%; Post-emergence action against VERPE in % ([11]; 320 g/ha, VERPE): 80%; Post-emergence action against ECHCG in % ([13]; dosage 320 g/ha): 90%; Pre-emergence action against MATIN in % ([14]; dosage 80 g/ha): 90%; Post-emergence action against DIGSA in % ([15]; 320 g/ha): 90%; Post-emergence action against MATIN in % ([16]; dosage 320 g/ha): 80%; Pre-emergence action against PHBPU in % ([17]; dosage 80 g/ha): 90%"
O=C(O)CNC(=O)COc1nn(-c2ccccn2)c(-c2ccc(F)nc2)c1Cl [Example I-118],100,100,90,0,100,,100,90,100,100,90,100,100,80,90,80,90,90,80,90,Post-emergence action against ORYSA in % (Oryza sativa (ORYSA); [25]): 0%; Post-emergence action against ABUTH in % ([18]; 80 g/ha): 80%; Post-emergence action against ALOMY in % [19]: 100%; Pre-emergence action against LOLRI in % (Lolium rigidum (LOLRI); dosage 80 g/ha): 90%; Post-emergence action against PHBPU in % ([5]; dosage 80 g/ha): 80%; Post-emergence action against SETVI in % (Setaria viridis (SETVI) [9]; dosage 80 g/ha): 80%; Post-emergence action against VERPE in % ([11]; dosage 80 g/ha): 90%; Pre-emergence action against ALOMY ([12]; 80 g/ha): 90%; Post-emergence action against AMARE in % [20]: 90%; Pre-emergence action against POLCO in % ([21]; dosage 80 g/ha): 80%
COCCOC(=O)COc1nn(-c2ncccc2F)c(-c2ccc(F)nc2)c1Br [Example I-29],100,100,90,20,100,90,100,90,100,100,90,100,100,80,100,90,,90,90,90,"Post-emergence action against AVEFA in % (Avena fatua (AVEFA) [22]; 80 g/ha): 80%; Post-emergence action against ORYSA in % (Oryza sativa (ORYSA); [25]): 10%; Post-emergence action against ZEAMX in % (crop plant compatibility) (Zea mays (ZEAMX); 20 g/ha, ZEAMX, effect in comparison to untreated controls): 10%; Post-emergence action against ZEAMX in % (Zea mays (ZEAMX); crop plant compatibility, 80 g/ha, effect vs untreated controls): 20%; Post-emergence action against ALOMY in % [19]: 100%; Post-emergence action against SETVI in % (Setaria viridis (SETVI) [9]; dosage 80 g/ha): 80%; Post-emergence action against VERPE in % ([11]; dosage 80 g/ha): 80%; Pre-emergence action against ALOMY ([12]; 80 g/ha): 90%"
COC(=O)COc1nn(-c2nc(F)ccc2F)c(-c2cncc(F)c2)c1Cl [Example I-216],90,100,90,10,100,100,80,,100,90,80,100,90,80,90,80,90,90,80,90,Post-emergence action against AVEFA in % (Avena fatua (AVEFA) [22]; 320 g/ha): 80%; Post-emergence action against VIOTR in % (Viola tricolor (VIOTR) [3]; 80 g/ha): 80%; Post-emergence action against VIOTR in % (Viola tricolor (VIOTR) [3]; 320 g/ha): 80%; Post-emergence action against ABUTH in % ([18]; 320 g/ha): 80%; Post-emergence action against PHBPU in % ([5]; dosage 80 g/ha): 80%; Post-emergence action against PHBPU in % ([5]; dosage 320 g/ha): 80%; Pre-emergence action against ECHCG in % ([7]; dosage 80 g/ha): 80%; Post-emergence action against SETVI in % (Setaria viridis (SETVI) [9]; dosage 320 g/ha): 80%; Post-emergence action against ECHCG in % ([13]; dosage 320 g/ha): 80%; Pre-emergence action against MATIN in % ([14]; dosage 80 g/ha): 90%; Post-emergence action against DIGSA in % ([15]; 320 g/ha): 80%; Post-emergence action against MATIN in % ([16]; dosage 320 g/ha): 80%; Pre-emergence action against PHBPU in % ([17]; dosage 80 g/ha): 90%; Pre-emergence action against POLCO in % ([21]; dosage 80 g/ha): 90%
